In ChEMBL document CHEMBL1201862, “PubChem BioAssay data set” (2004):
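Five compound concentrations were applied to cells in 96-well plates for 48 hours; endpoints were derived by simple linear interpolation of the resulting dose-response curve. At the GI50, growth is halved.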 Active and inactive are the calls of the source. No stated cut-off is given here; in the data, active = GI50 up to about 1.1 µM and inactive = higher.

Columns and labels:
Assay in all cases: NCI tumour cell line growth inhibition, 48 h
786-0 = system: 786-0
A498 = system: A498
A549 = system: A549
ACHN = system: ACHN
CAKI-1 = system: CAKI-1
CCRF-CEM = system: CCRF-CEM
COLO 205 = system: COLO 205
DLD-1 = system: DLD-1
DMS-114 = system: DMS-114
DMS-273 = system: DMS-273
EKVX = system: EKVX
HCC 2998 = system: HCC 2998
HCT-15 = system: HCT-15
HL-60 = system: HL-60
HOP-18 = system: HOP-18
HOP-62 = system: HOP-62
HT-29 = system: HT-29
IGROV-1 = system: IGROV-1
K562 = system: K562
KM-20L2 = system: KM-20L2
KM12 = system: KM12
LOX IMVI = system: LOX IMVI
LXFL 529 = system: LXFL 529
M14 = system: M14
M19-MEL = system: M19-MEL
MOLT-4 = system: MOLT-4
Malme-3M = system: Malme-3M
NCI-H226 = system: NCI-H226
NCI-H23 = system: NCI-H23
NCI-H460 = system: NCI-H460
NCI-H522 = system: NCI-H522
OVCAR-3 = system: OVCAR-3
OVCAR-4 = system: OVCAR-4
OVCAR-5 = system: OVCAR-5
OVCAR-8 = system: OVCAR-8
RPMI-8226 = system: RPMI-8226
RXF 393 = system: RXF 393
RXF 631 = system: RXF 631
SF-268 = system: SF-268
SF-295 = system: SF-295
SF-539 = system: SF-539
SK-MEL-28 = system: SK-MEL-28
SK-MEL-2 = system: SK-MEL-2
SK-MEL-5 = system: SK-MEL-5
SK-OV-3 = system: SK-OV-3
SN12C = system: SN12C
SNB-19 = system: SNB-19
SNB-75 = system: SNB-75
SW-620 = system: SW-620
TK-10 = system: TK-10
U-251 = system: U-251
UACC-257 = system: UACC-257
UACC-62 = system: UACC-62
UO-31 = system: UO-31
XF498 = system: XF498
HCT-116 = system: HCT-116
HOP-92 = system: HOP-92
SNB-78 = system: SNB-78
SR = system: SR

C=CCNC1=NC(=O)C(CC(=O)Nc2cccc(Cl)c2)S1 (stereo not drawn)
GI50 (786-0): > 100 µM (inactive) | GI50 (A498): > 100 µM (inactive) | GI50 (A549): > 100 µM (inactive) | GI50 (ACHN): > 100 µM (inactive) | GI50 (CAKI-1): > 100 µM (inactive) | GI50 (CCRF-CEM): > 100 µM (inactive) | GI50 (COLO 205): > 100 µM (inactive) | GI50 (DLD-1): > 100 µM (inactive) | GI50 (DMS-114): > 100 µM (inactive) | GI50 (DMS-273): > 100 µM (inactive) | GI50 (EKVX): > 100 µM (inactive) | GI50 (HCC 2998): > 100 µM (inactive) | GI50 (HCT-15): > 100 µM | GI50 (HL-60): > 100 µM (inactive) | GI50 (HOP-18): > 100 µM (inactive) | GI50 (HOP-62): > 100 µM (inactive) | GI50 (HT-29): > 100 µM (inactive) | GI50 (IGROV-1): > 100 µM (inactive) | GI50 (K562): > 100 µM (inactive) | GI50 (KM-20L2): > 100 µM (inactive) | GI50 (KM12): > 100 µM (inactive) | GI50 (LOX IMVI): > 100 µM (inactive) | GI50 (LXFL 529): > 100 µM (inactive) | GI50 (M14): > 100 µM (inactive) | GI50 (M19-MEL): > 100 µM (inactive) | GI50 (MOLT-4): > 100 µM (inactive) | GI50 (Malme-3M): > 100 µM (inactive) | GI50 (NCI-H226): > 100 µM (inactive) | GI50 (NCI-H23): > 100 µM (inactive) | GI50 (NCI-H460): > 100 µM (inactive) | GI50 (NCI-H522): > 100 µM (inactive) | GI50 (OVCAR-3): > 100 µM (inactive) | GI50 (OVCAR-4): > 100 µM (inactive) | GI50 (OVCAR-5): > 100 µM (inactive) | GI50 (OVCAR-8): > 100 µM (inactive) | GI50 (RPMI-8226): > 100 µM (inactive) | GI50 (RXF 393): > 100 µM (inactive) | GI50 (RXF 631): > 100 µM (inactive) | GI50 (SF-268): > 100 µM (inactive) | GI50 (SF-295): > 100 µM (inactive) | GI50 (SF-539): > 100 µM (inactive) | GI50 (SK-MEL-28): > 100 µM (inactive) | GI50 (SK-MEL-2): > 100 µM (inactive) | GI50 (SK-MEL-5): > 100 µM (inactive) | GI50 (SK-OV-3): > 100 µM (inactive) | GI50 (SN12C): > 100 µM (inactive) | GI50 (SNB-19): > 100 µM (inactive) | GI50 (SNB-75): > 100 µM (inactive) | GI50 (SW-620): > 100 µM (inactive) | GI50 (TK-10): > 100 µM (inactive) | GI50 (U-251): > 100 µM (inactive) | GI50 (UACC-257): > 100 µM (inactive) | GI50 (UACC-62): > 100 µM (inactive) | GI50 (UO-31): > 100 µM (inactive) | GI50 (XF498): > 100 µM (inactive)

NC1=NS(=O)(=O)Nc2nc(-c3ccc(Cl)cc3)c(-c3ccc(Cl)cc3)nc21
GI50 (786-0): > 100 µM (inactive) | GI50 (A549): > 100 µM (inactive) | GI50 (ACHN): > 100 µM (inactive) | GI50 (CAKI-1): > 100 µM (inactive) | GI50 (CCRF-CEM): 82.4 µM (inactive) | GI50 (COLO 205): > 100 µM (inactive) | GI50 (DLD-1): > 100 µM (inactive) | GI50 (DMS-114): 32.1 µM (inactive) | GI50 (DMS-273): > 100 µM (inactive) | GI50 (HCC 2998): > 100 µM (inactive) | GI50 (HCT-116): > 100 µM (inactive) | GI50 (HL-60): > 100 µM (inactive) | GI50 (HOP-18): > 100 µM (inactive) | GI50 (HOP-62): > 100 µM (inactive) | GI50 (HOP-92): > 100 µM (inactive) | GI50 (HT-29): > 100 µM (inactive) | GI50 (IGROV-1): > 100 µM (inactive) | GI50 (K562): 34 µM (inactive) | GI50 (KM12): > 100 µM (inactive) | GI50 (LOX IMVI): 29.3 µM (inactive) | GI50 (LXFL 529): 34.9 µM (inactive) | GI50 (M14): > 100 µM (inactive) | GI50 (M19-MEL): > 100 µM (inactive) | GI50 (MOLT-4): > 100 µM (inactive) | GI50 (Malme-3M): > 100 µM (inactive) | GI50 (NCI-H23): > 100 µM (inactive) | GI50 (NCI-H460): > 100 µM (inactive) | GI50 (NCI-H522): 48 µM (inactive) | GI50 (OVCAR-3): > 100 µM (inactive) | GI50 (OVCAR-4): > 100 µM (inactive) | GI50 (OVCAR-5): > 100 µM (inactive) | GI50 (OVCAR-8): > 100 µM (inactive) | GI50 (RXF 393): > 100 µM (inactive) | GI50 (RXF 631): > 100 µM (inactive) | GI50 (SF-268): > 100 µM (inactive) | GI50 (SF-295): > 100 µM (inactive) | GI50 (SF-539): > 100 µM (inactive) | GI50 (SK-MEL-28): > 100 µM (inactive) | GI50 (SK-MEL-5): > 100 µM (inactive) | GI50 (SN12C): > 100 µM (inactive) | GI50 (SNB-19): > 100 µM (inactive) | GI50 (SNB-75): > 100 µM (inactive) | GI50 (SNB-78): > 100 µM (inactive) | GI50 (SR): > 100 µM (inactive) | GI50 (SW-620): > 100 µM (inactive) | GI50 (TK-10): > 100 µM (inactive) | GI50 (U-251): 65.8 µM (inactive) | GI50 (UACC-257): > 100 µM (inactive) | GI50 (UACC-62): > 100 µM (inactive) | GI50 (UO-31): > 100 µM (inactive) | GI50 (XF498): 69.3 µM (inactive)

Cc1nc(Nc2ccc(Cl)cc2)sc1C(=O)NNC(=S)NN
GI50 (786-0): 16.6 µM (inactive) | GI50 (A498): 15.3 µM (inactive) | GI50 (A549): 19 µM (inactive) | GI50 (ACHN): 19.5 µM (inactive) | GI50 (CAKI-1): 24.7 µM (inactive) | GI50 (CCRF-CEM): 29.1 µM (inactive) | GI50 (COLO 205): 21.6 µM (inactive) | GI50 (DLD-1): 16.6 µM (inactive) | GI50 (DMS-114): 17.5 µM (inactive) | GI50 (DMS-273): 18.6 µM (inactive) | GI50 (EKVX): 16.9 µM (inactive) | GI50 (HCC 2998): 15.5 µM (inactive) | GI50 (HCT-116): 17 µM (inactive) | GI50 (HCT-15): 20.4 µM | GI50 (HL-60): 21.4 µM (inactive) | GI50 (HOP-18): 18.3 µM (inactive) | GI50 (HOP-62): 18.8 µM (inactive) | GI50 (HOP-92): 26.1 µM (inactive) | GI50 (IGROV-1): 25.9 µM (inactive) | GI50 (K562): 27.3 µM (inactive) | GI50 (KM-20L2): 17.5 µM (inactive) | GI50 (KM12): 20.1 µM (inactive) | GI50 (LOX IMVI): 14.5 µM (inactive) | GI50 (LXFL 529): 20 µM (inactive) | GI50 (M14): 19.7 µM (inactive) | GI50 (M19-MEL): 22.3 µM (inactive) | GI50 (MOLT-4): 21.5 µM (inactive) | GI50 (Malme-3M): 19.7 µM (inactive) | GI50 (NCI-H226): 19.1 µM (inactive) | GI50 (NCI-H23): 17.6 µM (inactive) | GI50 (NCI-H460): 19.7 µM (inactive) | GI50 (NCI-H522): 16.6 µM (inactive) | GI50 (OVCAR-3): 19.3 µM (inactive) | GI50 (OVCAR-4): 17.7 µM (inactive) | GI50 (OVCAR-5): 16.8 µM (inactive) | GI50 (OVCAR-8): 21.3 µM (inactive) | GI50 (RPMI-8226): 29 µM (inactive) | GI50 (RXF 393): 12.7 µM (inactive) | GI50 (RXF 631): 19.5 µM (inactive) | GI50 (SF-268): 21.1 µM (inactive) | GI50 (SF-295): 17.5 µM (inactive) | GI50 (SF-539): 17.5 µM (inactive) | GI50 (SK-MEL-28): 19.3 µM (inactive) | GI50 (SK-MEL-2): 18.5 µM (inactive) | GI50 (SK-MEL-5): 18.3 µM (inactive) | GI50 (SK-OV-3): 27.4 µM (inactive) | GI50 (SN12C): 18.1 µM (inactive) | GI50 (SNB-19): 18.9 µM (inactive) | GI50 (SNB-75): 32.7 µM (inactive) | GI50 (SNB-78): 19.5 µM (inactive) | GI50 (SW-620): 19.5 µM (inactive) | GI50 (TK-10): 20.9 µM (inactive) | GI50 (U-251): 17.5 µM (inactive) | GI50 (UACC-257): 13.2 µM (inactive) | GI50 (UACC-62): 17.2 µM (inactive) | GI50 (UO-31): 15.8 µM (inactive) | GI50 (XF498): 21.2 µM (inactive)
